Laboratory results published in ChEMBL document CHEMBL1201862, “PubChem BioAssay data set” (2004).
Calls of active or inactive are those of the source. Rule as the data show it, for most assays here: actives have a measured EC50 and inactives only a lower limit.

Experiments:
[1] = Luminescence Cell-Based Dose Confirmation HTS to Identify Activators of 5'UTR Stem-Loop Driven Alpha-Synuclein mRNA Translation in H4 Neuroglioblastoma Cells. [Related pubchem assays: 1829 (Project Summary), 1814 (Primary HTS)]; assay type: functional
[2] = Luminescence Cell-Based Dose Response HTS to Identify Activators of Luciferase Translation or Activity in H4 […] Cells. [Related pubchem assays: 1829 (Project Summary), 1814 (Primary HTS)]; assay type: functional
[3] = test system: BJ; assay: BJ-TERT fibroblast viability loss – cell-based, RAS-independent, luminescence, dose response (AID 1933); assay type: functional; conditions: Homo sapiens
[4] = test system: H4; assay: Luminescence Cell-Based Dose Response HTS to Identify Activators of 5'UTR Stem-Loop Driven Prion Protein mRNA Translation in H4 Neuroglioblastoma Cells. [Related pubchem assays: 1829 (Project Summary), 1814 (Primary HTS)]; assay type: functional; conditions: Homo sapiens
[5] = test system: BJ; assay: cells; assay type: functional, cell-based; conditions: Homo sapiens
[6] = test system: BJ; assay: BJ-TERT-LT-ST fibroblast viability loss – cell-based, RAS-independent, luminescence, dose response (AID 1935); assay type: functional; conditions: Homo sapiens;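 also: BJ fibroblasts immortalized with TERT plus LT and ST oncogenes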
[7] = DRD fibroblast viability loss – cell-based, non-viral oncogenic, luminescence, dose response (AID 1934); assay type: functional; conditions: Homo sapiens
[8] = test system: BJ; assay: growth inhibition of engineered Ras-driven BJ cells – cell-based, alamar blue fluorescence, cherrypicked samples, dose response (AID 2631); assay type: functional; conditions: Homo sapiens;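 also: confirmatory dose-response assay in RAS-dependent BJ fibroblasts engineered with TERT, LT and ST, with cytotoxicity read by fluorescence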
[9] = test system: Vero; assay: cells; assay type: functional; conditions: Chlorocebus sabaeus
[10] = A Cell Based Secondary Assay To Explore Cytotoxicity of Compounds that Sensitize Mycobacterium Tuberculosis to Beta-Lactam Antibiotics.; assay type: functional
[11] = molecular target: Luciferin 4-monooxygenase (Photinus pyralis, UniProt P08659); assay: inhibition of purified Photinus pyralis luciferase – biochemical, luminescence, dose response (AID 1891)
[12] = Luminescence Cell-Based Dose Confirmation HTS to Identify Inhibitors of Platelet Dense Granule Release. [Related pubchem assays: 1663 (Primary HTS), 1678 (Summary of Project)]; assay type: functional
[13] = molecular target: T1, Apoptotic protease-activating factor 1 (Homo sapiens, UniProt O14727); assay type: functional
T1 sequence (O14727 whole entry): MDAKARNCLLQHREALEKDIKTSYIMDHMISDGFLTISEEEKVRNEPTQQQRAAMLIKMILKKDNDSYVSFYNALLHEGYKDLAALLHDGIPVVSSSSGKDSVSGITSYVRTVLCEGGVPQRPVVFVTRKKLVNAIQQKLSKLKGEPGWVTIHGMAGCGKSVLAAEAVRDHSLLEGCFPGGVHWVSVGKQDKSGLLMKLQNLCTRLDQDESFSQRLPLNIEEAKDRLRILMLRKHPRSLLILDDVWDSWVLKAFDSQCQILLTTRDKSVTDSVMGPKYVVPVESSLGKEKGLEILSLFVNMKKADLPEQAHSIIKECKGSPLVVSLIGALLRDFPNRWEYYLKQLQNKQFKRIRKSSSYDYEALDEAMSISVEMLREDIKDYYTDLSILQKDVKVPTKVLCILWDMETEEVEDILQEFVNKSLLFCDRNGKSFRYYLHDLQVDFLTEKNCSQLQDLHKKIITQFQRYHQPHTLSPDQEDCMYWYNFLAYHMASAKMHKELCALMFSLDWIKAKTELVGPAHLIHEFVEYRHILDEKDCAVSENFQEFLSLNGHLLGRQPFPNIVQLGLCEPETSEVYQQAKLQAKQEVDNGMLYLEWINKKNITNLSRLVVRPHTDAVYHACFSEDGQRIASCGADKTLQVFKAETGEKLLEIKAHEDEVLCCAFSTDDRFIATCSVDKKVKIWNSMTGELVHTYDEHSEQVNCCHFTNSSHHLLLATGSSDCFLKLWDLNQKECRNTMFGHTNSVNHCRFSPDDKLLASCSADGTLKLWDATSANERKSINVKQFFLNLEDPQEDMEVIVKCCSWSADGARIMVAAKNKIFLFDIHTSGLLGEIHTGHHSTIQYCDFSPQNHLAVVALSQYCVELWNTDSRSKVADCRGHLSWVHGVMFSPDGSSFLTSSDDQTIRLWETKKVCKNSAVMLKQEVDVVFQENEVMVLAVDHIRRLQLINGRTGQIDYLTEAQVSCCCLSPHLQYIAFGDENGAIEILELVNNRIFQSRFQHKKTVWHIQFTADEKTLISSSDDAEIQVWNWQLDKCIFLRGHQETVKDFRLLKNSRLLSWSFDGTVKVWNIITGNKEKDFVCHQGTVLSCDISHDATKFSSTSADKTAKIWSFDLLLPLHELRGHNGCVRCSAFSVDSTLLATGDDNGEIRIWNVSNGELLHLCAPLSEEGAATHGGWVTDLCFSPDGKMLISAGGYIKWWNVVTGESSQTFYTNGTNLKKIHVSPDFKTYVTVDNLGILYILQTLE

[14] = test system: Streptococcus sp. 'group A'; assay: Streptococcus pyogenes SK(-)GAS viability under kanamycin – luminescence, BacTiterGlo, confirmation, counter-screen for streptokinase expression inhibitor project, dose response (AID 1900); assay type: functional, organism-based
[15] = molecular target: T2, Streptokinase A (Streptococcus pyogenes serotype M1, UniProt P10520); assay: viability-normalized secreted streptokinase activity reduction – plasminogen activation absorbance, OD405, dose response (AID 1914); assay type: functional, Streptococcus pyogenes M1 GAS;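 also: secreted streptokinase activity via plasminogen activation per viability signal from cell pellet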
T2 sequence (P10520 whole entry): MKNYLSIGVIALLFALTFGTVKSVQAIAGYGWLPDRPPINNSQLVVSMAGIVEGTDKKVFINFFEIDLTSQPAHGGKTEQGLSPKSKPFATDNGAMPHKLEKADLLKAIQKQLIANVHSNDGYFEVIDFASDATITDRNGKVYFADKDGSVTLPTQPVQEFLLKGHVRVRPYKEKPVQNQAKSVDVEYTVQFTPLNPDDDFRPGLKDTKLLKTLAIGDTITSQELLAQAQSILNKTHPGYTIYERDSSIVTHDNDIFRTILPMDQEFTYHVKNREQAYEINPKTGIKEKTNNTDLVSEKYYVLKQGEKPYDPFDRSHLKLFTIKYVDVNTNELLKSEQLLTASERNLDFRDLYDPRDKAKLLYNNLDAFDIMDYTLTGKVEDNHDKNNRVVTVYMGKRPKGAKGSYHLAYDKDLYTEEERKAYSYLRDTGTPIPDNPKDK

[16] = test system: Streptococcus; assay: GAS UMAA2166 growth inhibition – luminescence, BacTiterGlo, counter-screen for streptokinase expression inhibitor project, dose response (AID 1915); assay type: functional, organism-based;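 also: potency for reduction of bacterial viability or growth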
[17] = Luminescence Cell-Based Dose Retest to Confirm Inhibitors of Cancer Stem Cells. [Related pubchem assays (depositor defined):AID2717, AID2721]; assay type: functional; conditions: Homo sapiens
[18] = test system: CHO; assay: CHO cell viability loss, potency – luminescence, cytotoxicity control for TLR9-MyD88 binding inhibitor project, dose response (AID 588339); assay type: functional, cell-based, hamster; conditions: Cricetulus griseus;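 also: CHO cells stably coexpressing TLR9 and MyD88 fusions from primary screen; compound exposure lasted 48 hours before viability readout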
[19] = molecular target: T3, Replicative DNA helicase DnaB (Mycobacterium tuberculosis, UniProt P9WMR3); assay: DnaB intein splicing inhibitors, dose response, biochemical, cell-free fluorescence (AID 449749); assay type: functional
T3 sequence (P9WMR3 whole entry): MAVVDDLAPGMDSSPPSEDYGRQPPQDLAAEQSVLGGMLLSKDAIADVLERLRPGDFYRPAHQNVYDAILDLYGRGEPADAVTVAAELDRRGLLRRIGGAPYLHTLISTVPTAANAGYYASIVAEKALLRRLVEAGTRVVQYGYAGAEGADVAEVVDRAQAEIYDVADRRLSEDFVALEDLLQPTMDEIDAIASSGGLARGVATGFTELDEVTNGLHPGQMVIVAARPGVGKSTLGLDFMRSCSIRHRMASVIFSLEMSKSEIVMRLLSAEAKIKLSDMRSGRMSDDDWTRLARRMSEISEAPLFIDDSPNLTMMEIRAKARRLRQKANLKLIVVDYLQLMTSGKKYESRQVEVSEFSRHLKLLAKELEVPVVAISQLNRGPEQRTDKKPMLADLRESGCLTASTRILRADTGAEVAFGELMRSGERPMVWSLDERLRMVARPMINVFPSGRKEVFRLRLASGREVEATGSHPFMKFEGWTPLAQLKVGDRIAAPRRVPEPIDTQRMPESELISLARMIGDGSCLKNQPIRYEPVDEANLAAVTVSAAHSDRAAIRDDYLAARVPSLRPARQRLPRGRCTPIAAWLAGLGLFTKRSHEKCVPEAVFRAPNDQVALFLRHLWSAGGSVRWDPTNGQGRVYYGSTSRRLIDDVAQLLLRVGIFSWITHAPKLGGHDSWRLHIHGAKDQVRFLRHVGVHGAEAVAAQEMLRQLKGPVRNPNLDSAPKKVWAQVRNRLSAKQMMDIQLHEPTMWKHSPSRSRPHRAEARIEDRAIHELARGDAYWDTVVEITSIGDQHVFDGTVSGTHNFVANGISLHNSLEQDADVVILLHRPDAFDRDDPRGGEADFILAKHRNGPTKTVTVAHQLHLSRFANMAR

[20] = molecular target: T4, Protein RecA (Mycobacterium tuberculosis, UniProt P9WHJ3); assay: Fluorescence Cell-Free Homogeneous Dose Retest to Identify Inhibitors of RecA-Intein Splicing Activity. [Related pubchem assays (depositor defined):AID2097, AID2223, AID489010, AID492950]; assay type: functional
T4 sequence (P9WHJ3 whole entry): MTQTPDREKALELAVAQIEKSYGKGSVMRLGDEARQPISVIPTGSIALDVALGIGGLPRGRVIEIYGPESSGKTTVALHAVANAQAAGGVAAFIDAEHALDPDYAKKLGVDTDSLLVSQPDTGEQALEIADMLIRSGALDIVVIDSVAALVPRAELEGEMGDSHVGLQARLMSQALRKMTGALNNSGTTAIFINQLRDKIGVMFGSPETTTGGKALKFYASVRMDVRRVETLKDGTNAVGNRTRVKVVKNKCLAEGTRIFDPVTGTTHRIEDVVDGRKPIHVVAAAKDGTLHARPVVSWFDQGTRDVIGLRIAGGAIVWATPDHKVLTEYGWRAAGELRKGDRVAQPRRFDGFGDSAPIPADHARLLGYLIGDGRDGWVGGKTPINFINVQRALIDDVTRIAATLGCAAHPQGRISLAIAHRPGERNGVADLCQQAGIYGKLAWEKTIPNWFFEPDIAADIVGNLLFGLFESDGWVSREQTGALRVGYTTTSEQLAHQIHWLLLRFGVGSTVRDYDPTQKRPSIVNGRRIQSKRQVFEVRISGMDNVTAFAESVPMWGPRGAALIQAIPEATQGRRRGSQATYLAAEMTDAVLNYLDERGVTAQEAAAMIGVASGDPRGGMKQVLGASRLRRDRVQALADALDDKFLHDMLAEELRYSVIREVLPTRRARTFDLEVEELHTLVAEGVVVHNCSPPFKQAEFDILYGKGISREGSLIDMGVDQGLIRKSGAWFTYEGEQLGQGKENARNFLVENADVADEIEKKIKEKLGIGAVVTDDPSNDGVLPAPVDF

[21] = reduction of Shn3 3'UTR-driven luciferase in osteoblasts – cell-based, Clone20 osteoblasts, firefly luciferase, cherry-picked, dose response (AID 624132); assay type: functional;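 also: firefly luciferase luminescence from reporter carrying the Shn3 3'UTR in osteoblasts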
[22] = loss of viability in HepG2 cells – cell-based, CellTiter-Glo, cherry-picked, cytotoxicity control for Shn3 inhibitor project, dose response (AID 624134); assay type: functional
[23] = non-specific 3'UTR reporter inhibition in Clone20-Shn3RL – cell-based, Renilla luciferase, cherry-picked, counter-screen for Shn3 inhibitor project, dose response (AID 624133); assay type: functional
[24] = molecular target: ATP-binding cassette sub-family B member 6 (Homo sapiens, UniProt Q9NP58); assay: ABCB6 transporter inhibitors, porphyrin accumulation, dose response, flow cytometry, K562-ABCB6 cells, cherry pick 02 (AID 624487); assay type: functional; conditions: read-out: EC50_MICROM
[25] = test system: Vero; assay: mammalian cell viability reduction – secondary assay, cytotoxicity control for West Nile virus antiviral project, dose response (AID 1650); assay type: functional; conditions: Chlorocebus sabaeus
[26] = HPDE-C7 pancreatic duct cell viability loss – fluorescence, HTS (AID 430); assay type: functional, cell-based; conditions: Homo sapiens
[27] = viability loss of HPDE-C7K cells – cell-based, fluorescence, HTS, primary screen (AID 431); assay type: functional; conditions: Homo sapiens
[28] = test system: HT-1080; assay: HT1080 cell viability loss – fluorescence readout (AID 620); assay type: functional, cell-based; conditions: Homo sapiens
[29] = test system: Vero; assay: viability of Vero cells under compound – cytotoxicity control for flavivirus capping enzyme inhibitors (AID 588742); assay type: functional; conditions: Chlorocebus sabaeus

Luciferin 4-monooxygenase, sequence (P08659 whole entry): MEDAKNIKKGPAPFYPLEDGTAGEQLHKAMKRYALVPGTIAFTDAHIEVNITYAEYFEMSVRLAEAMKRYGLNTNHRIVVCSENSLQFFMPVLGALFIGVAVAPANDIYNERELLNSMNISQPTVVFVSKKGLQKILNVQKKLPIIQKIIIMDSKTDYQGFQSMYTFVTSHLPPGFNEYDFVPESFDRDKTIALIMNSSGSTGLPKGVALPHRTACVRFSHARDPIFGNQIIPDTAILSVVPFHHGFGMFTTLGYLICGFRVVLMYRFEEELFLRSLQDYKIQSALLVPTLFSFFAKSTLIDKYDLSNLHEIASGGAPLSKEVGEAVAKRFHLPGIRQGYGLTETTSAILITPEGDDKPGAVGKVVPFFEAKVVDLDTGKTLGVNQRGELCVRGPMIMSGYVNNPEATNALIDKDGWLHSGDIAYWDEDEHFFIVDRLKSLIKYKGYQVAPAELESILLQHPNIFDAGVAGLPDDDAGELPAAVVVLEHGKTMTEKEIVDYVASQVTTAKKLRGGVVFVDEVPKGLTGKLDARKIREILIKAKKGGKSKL
ATP-binding cassette sub-family B member 6, sequence (Q9NP58 whole entry): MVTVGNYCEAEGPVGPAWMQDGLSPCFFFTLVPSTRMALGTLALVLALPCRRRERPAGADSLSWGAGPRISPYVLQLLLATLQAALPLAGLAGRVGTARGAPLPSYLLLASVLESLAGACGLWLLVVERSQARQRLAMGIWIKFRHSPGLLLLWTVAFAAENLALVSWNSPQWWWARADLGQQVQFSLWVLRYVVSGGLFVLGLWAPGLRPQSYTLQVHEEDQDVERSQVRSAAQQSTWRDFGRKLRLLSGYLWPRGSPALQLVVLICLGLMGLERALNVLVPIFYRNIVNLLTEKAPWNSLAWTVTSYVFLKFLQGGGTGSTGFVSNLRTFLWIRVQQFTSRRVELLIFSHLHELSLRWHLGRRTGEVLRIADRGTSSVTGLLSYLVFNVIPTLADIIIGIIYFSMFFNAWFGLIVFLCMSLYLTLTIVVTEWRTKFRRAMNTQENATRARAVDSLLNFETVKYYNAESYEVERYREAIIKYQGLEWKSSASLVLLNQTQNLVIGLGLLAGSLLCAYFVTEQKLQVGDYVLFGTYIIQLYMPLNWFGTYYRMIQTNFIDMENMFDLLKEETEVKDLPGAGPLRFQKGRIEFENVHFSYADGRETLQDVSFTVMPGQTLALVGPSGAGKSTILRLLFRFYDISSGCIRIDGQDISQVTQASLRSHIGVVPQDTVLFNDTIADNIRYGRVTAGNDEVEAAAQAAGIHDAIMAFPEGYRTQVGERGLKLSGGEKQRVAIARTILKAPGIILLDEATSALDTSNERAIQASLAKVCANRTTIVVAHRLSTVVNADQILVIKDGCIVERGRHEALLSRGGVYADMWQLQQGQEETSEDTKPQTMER

## CN1CCN(C(=O)CCCN2C(=O)/C(=C/c3cccc(Br)c3)SC2=S)CC1
[1]
  EC50: 13.9 µM (active)
[2]
  EC50: > 120 µM (not active)
[3]
  EC50: 1.93 µM (active)
[4]
  EC50: > 120 µM (not active)
[5]
  EC50: > 150 µM (inconclusive)
[6]
  EC50: > 150 µM (inconclusive)
[7]
  EC50: 4.36 µM (active)
[8]
  EC50: > 66.7 µM (inactive)
[9]
  CC50: > 25 µM (active)

## O=C1N/C(=C\c2ccc(O)cc2)C(=O)c2ccccc21
[10]
  CC50: > 40 µM (active)
[11]
  EC50: 0.661 µM (active)
[12]
  EC50: 1.15 µM (active)
[13]
  IC50: 3.21 µM (active)

## Cc1ccc(NC(=O)c2nc(S(=O)(=O)Cc3ccccc3C)ncc2Cl)cc1C
[14]
  EC50: 9.97 µM (active)
[15]
  EC50: 1.32 µM (active)
[16]
  EC50: 22.2 µM (inconclusive)
[17]
  AC50: 2.01 µM (active)
[18]
  IC50: 5.02 µM (active)
[19]
  AC50: > 380 µM (inconclusive)
[20]
  EC50: 1.31 µM (active)
[21]
  AC50: 0.486 µM (active)
[22]
  AC50: 30.8 µM (active)
[23]
  AC50: 8.07 µM (active)
[24]
  EC50: 20.5 µM (active)

## O=C(NCc1cccs1)c1nc(O)c2nnn(Cc3ccccc3Cl)c2n1
[25]
  CC50: 14.6 µM (active)
[26]
  EC50: > 20 µM (not active)
[27]
  EC50: > 20 µM (not active)
[28]
  EC50: > 50 µM (not active)
[29]
  CC50: 7 µM (active)
